Laboratory results: ChEMBL document CHEMBL1123199, “Synthesis and structure-activity relationships of naftifine-related allylamine antimycotics” (1986)
≈ marks a conversion by molar mass, not a printed value.

Experiments:
Microsporum canis = assay: Antifungal activity against Microsporum canis; assay type: functional
Epidermophyton floccosum = assay: Antifungal activity against Epidermophyton floccosum.; assay type: functional
Aspergillus fumigatus = assay: Antifungal activity measured against Aspergillus fumigatus; assay type: functional
Candida parapsilosis = assay: Antifungal activity against Candida parapsilosis.; assay type: functional; settings: Lodderomyces parapsilosis
Sporothrix schenckii = assay: Antifungal activity measured against Sporothrix schenck ii.; assay type: functional
Trichophyton benhamiae = assay: Antifungal activity measured against Trichophyton mentagrophytes; assay type: functional, Arthroderma benhamiae
Cavia porcellus [1] = assay: In vivo antifungal activity by topical treatment of guinea pig dermatophytosis caused by Trichophyton mentagrophytes at a dose of 2%; assay type: functional
Cavia porcellus [2] = assay: In vivo antifungal activity by topical treatment of guinea pig dermatophytosis caused by Trichophyton mentagrophytes at a dose of 0.1%; assay type: functional
Cavia porcellus [3] = assay: In vivo antifungal activity by topical treatment of guinea pig dermatophytosis caused by Trichophyton mentagrophytes at a dose of 0.5%; assay type: functional

Structure (SMILES)	MIC (Microsporum canis) [µg/mL]	MIC (Epidermophyton floccosum) [µg/mL]	MIC (Aspergillus fumigatus) [µg/mL]	MIC (Candida parapsilosis) [µg/mL]	MIC (Sporothrix schenckii) [µg/mL]	MIC (Trichophyton benhamiae) [µg/mL]	Activity (Cavia porcellus [1]) [%]	Activity (Cavia porcellus [2]) [%]	Activity (Cavia porcellus [3]) [%]
CN(C/C=C/c1ccccc1)Cc1coc2ccccc12	1.6 (≈ 5.77 µM)	12.5 (≈ 45.1 µM)	> 100	25 (≈ 90.1 µM)	100 (≈ 361 µM)	1.6 (≈ 5.77 µM)	–	–	–
C(=C\c1ccccc1)/CSCc1cccc2ccccc12	> 100	> 100	> 100	> 100	> 100	25 (≈ 86.1 µM)	–	–	–
CN(C/C=C/c1ccccc1)Cc1c2c(cc3c1CCC3)CCC2	1.6 (≈ 5.04 µM)	3.1 (≈ 9.76 µM)	> 100	> 100	6.25 (≈ 19.7 µM)	1.6 (≈ 5.04 µM)	–	–	–
C=CCN(C)Cc1cccc2ccccc12	> 100	> 100	> 100	–	> 100	> 100	–	–	–
C/C(=C\c1ccccc1)CN(C)Cc1cccc2ccccc12	100 (≈ 332 µM)	100 (≈ 332 µM)	> 100	> 100	100 (≈ 332 µM)	12.5 (≈ 41.5 µM)	–	–	–
CN(CCc1ccccc1)Cc1cccc2ccccc12	100 (≈ 363 µM)	100 (≈ 363 µM)	> 100	> 100	> 100	12.5 (≈ 45.4 µM)	–	–	–
CN(C/C=C/c1ccccc1)Cc1c2ccccc2cc2ccccc12	0.8 (≈ 2.37 µM)	0.4 (≈ 1.19 µM)	100 (≈ 296 µM)	100 (≈ 296 µM)	50 (≈ 148 µM)	0.8 (≈ 2.37 µM)	38	0	0
C(=C\c1ccccc1)/CN(Cc1cccc2ccccc12)c1ccccc1	> 100	> 100	> 100	> 100	50 (≈ 143 µM)	> 100	–	–	–
C(=C\c1ccccc1)/CN(Cc1cccc2ccccc12)C1CCCCC1	> 100	> 100	> 100	> 100	> 100	> 100	–	–	–
C=CCN(C/C=C/c1ccccc1)Cc1cccc2ccccc12	< 1.6	3.1 (≈ 9.89 µM)	100 (≈ 319 µM)	> 100	6.25 (≈ 19.9 µM)	< 1.6	–	–	–
O=S(=O)(C/C=C/c1ccccc1)Cc1cccc2ccccc12	> 100	> 100	> 100	> 100	> 100	> 100	–	–	–
CN(C/C=C/c1ccccc1)CC1=CCCc2ccccc21	≤ 1.6	≤ 1.6	> 100	25 (≈ 86.4 µM)	12.5 (≈ 43.2 µM)	≤ 1.6	–	–	–
CN(C/C=C/C#N)Cc1cccc2ccccc12	100 (≈ 423 µM)	100 (≈ 423 µM)	> 100	> 100	> 100	100 (≈ 423 µM)	–	–	–
COc1ccc(/C=C/CN(C)Cc2cccc3ccccc23)cc1	50 (≈ 158 µM)	50 (≈ 158 µM)	> 100	> 100	> 100	6.2 (≈ 19.5 µM)	–	–	–
CN(Cc1cccc2ccccc12)CC1CC1c1ccccc1 (configuration not stated)	12.5 (≈ 41.5 µM)	25 (≈ 82.9 µM)	> 100	> 100	100 (≈ 332 µM)	12.5 (≈ 41.5 µM)	–	–	–
[O-][S+](C/C=C/c1ccccc1)Cc1cccc2ccccc12 (configuration not stated)	> 100	> 100	> 100	> 100	> 100	> 100	–	–	–
CN(C/C=C/C1CCCCC1)Cc1cccc2ccccc12	12.5 (≈ 42.6 µM)	12.5 (≈ 42.6 µM)	> 100	> 100	> 100	1.6 (≈ 5.45 µM)	–	–	–
C[N+](C)(C/C=C/c1ccccc1)Cc1cccc2ccccc12.[I-]	> 100	> 100	> 100	> 100	> 100	25	–	–	–
CN(CCC(O)c1ccccc1)Cc1cccc2ccccc12 (configuration not stated)	> 100	> 100	> 100	> 100	> 100	> 100	–	–	–
CN(CCC(=O)c1ccccc1)Cc1cccc2ccccc12	6.2 (≈ 20.4 µM)	6.2 (≈ 20.4 µM)	> 100	> 100	50 (≈ 165 µM)	6.2 (≈ 20.4 µM)	–	–	–
COc1ccc2ccccc2c1CN(C)C/C=C/c1ccccc1	100 (≈ 315 µM)	50 (≈ 158 µM)	> 100	> 100	> 100	50 (≈ 158 µM)	–	–	–
CN(C/C=C/c1ccccc1)Cc1cccc2sccc12	0.1 (≈ 0.341 µM)	0.1 (≈ 0.341 µM)	12.5 (≈ 42.6 µM)	1.6 (≈ 5.45 µM)	1.6 (≈ 5.45 µM)	0.1 (≈ 0.341 µM)	100	–	75
CN(CC(=O)c1ccccc1)Cc1cccc2ccccc12	6.2 (≈ 21.4 µM)	12.5 (≈ 43.2 µM)	> 100	> 100	> 100	3.1 (≈ 10.7 µM)	–	–	–
CN(C/C=C/C1=CCCCC1)Cc1cccc2ccccc12	0.1 (≈ 0.343 µM)	0.1 (≈ 0.343 µM)	12.5 (≈ 42.9 µM)	0.8 (≈ 2.75 µM)	0.8 (≈ 2.75 µM)	0.05 (≈ 0.172 µM)	100	41	97

Structure (SMILES)	MIC (Microsporum canis) [µg/mL]	MIC (Epidermophyton floccosum) [µg/mL]	MIC (Aspergillus fumigatus) [µg/mL]	MIC (Candida parapsilosis) [µg/mL]	MIC (Sporothrix schenckii) [µg/mL]	MIC (Trichophyton benhamiae) [µg/mL]	Activity (Cavia porcellus [1]) [%]	Activity (Cavia porcellus [2]) [%]	Activity (Cavia porcellus [3]) [%]
CN(C/C=C/c1ccccc1)Cc1cn(C)c2ccccc12	≤ 1.6	≤ 1.6	> 100	25 (≈ 86.1 µM)	≤ 1.6	≤ 1.6	88	0	0
C/C(=C\CN(C)Cc1cccc2ccccc12)c1ccccc1	100 (≈ 332 µM)	100 (≈ 332 µM)	> 100	> 100	100 (≈ 332 µM)	50 (≈ 166 µM)	–	–	–
C/C=C/CN(C)Cc1cccc2ccccc12	> 100	> 100	> 100	> 100	> 100	> 100	–	–	–
C(=C\c1ccccc1)/CN(Cc1ccccc1)Cc1cccc2ccccc12	> 100	> 100	> 100	> 100	> 100	> 100	–	–	–
CN(C/C=C/c1ccccc1)Cc1cc2ccccc2c2ccccc12	100 (≈ 296 µM)	100 (≈ 296 µM)	100 (≈ 296 µM)	100 (≈ 296 µM)	100 (≈ 296 µM)	100 (≈ 296 µM)	–	–	–
CC(=O)N(C/C=C/c1ccccc1)Cc1cccc2ccccc12	> 100	> 100	> 100	> 100	> 100	> 100	–	–	–
CN(C/C=C/c1cccc2ccccc12)Cc1cccc2ccccc12	100 (≈ 296 µM)	100 (≈ 296 µM)	> 100	> 100	100 (≈ 296 µM)	1.6 (≈ 4.74 µM)	–	–	–
CCN(C/C=C/c1ccccc1)Cc1cccc2ccccc12	< 1.6	< 1.6	100 (≈ 332 µM)	12.5 (≈ 41.5 µM)	12.5 (≈ 41.5 µM)	< 1.6	81	19	25
Cc1ccc(/C=C/CN(C)Cc2cccc3ccccc23)cc1	< 1.6	< 1.6	> 100	50 (≈ 166 µM)	12.5 (≈ 41.5 µM)	< 1.6	50	7	22
C(=C\c1ccccc1)/CN(C/C=C/c1ccccc1)Cc1cccc2ccccc12	> 100	> 100	> 100	> 100	> 100	> 100	–	–	–
C(=C\c1ccccc1)/C=N/Cc1cccc2ccccc12	> 100	100 (≈ 369 µM)	> 100	> 100	100 (≈ 369 µM)	100 (≈ 369 µM)	–	–	–
CN(C/C=C/c1ccccc1)CC1=CCOc2ccccc21	0.4 (≈ 1.37 µM)	0.4 (≈ 1.37 µM)	50 (≈ 172 µM)	6.2 (≈ 21.3 µM)	6.2 (≈ 21.3 µM)	0.2 (≈ 0.686 µM)	82	–	–
CC(/C=C/c1ccccc1)N(C)Cc1cccc2ccccc12 (configuration not stated)	25 (≈ 82.9 µM)	12.5 (≈ 41.5 µM)	> 100	> 100	25 (≈ 82.9 µM)	< 1.6	–	–	–
CC(C)N(C/C=C/c1ccccc1)Cc1cccc2ccccc12	3.1 (≈ 9.83 µM)	< 1.6	> 100	100 (≈ 317 µM)	50 (≈ 158 µM)	< 1.6	–	–	–
CN(C/C=C/C1CC=CCC1)Cc1cccc2ccccc12 (configuration not stated)	25 (≈ 85.8 µM)	25 (≈ 85.8 µM)	> 100	> 100	100 (≈ 343 µM)	25 (≈ 85.8 µM)	–	–	–
CN(C/C=C/c1ccncc1)Cc1cccc2ccccc12	25 (≈ 86.7 µM)	25 (≈ 86.7 µM)	> 100	> 100	100 (≈ 347 µM)	< 1.6	–	–	–
CN(C/C=C/c1ccco1)Cc1cccc2ccccc12	6.2 (≈ 22.4 µM)	6.2 (≈ 22.4 µM)	> 100	> 100	100 (≈ 361 µM)	< 1.6	–	–	–
CN(Cc1cccc2ccccc12)C(=O)/C=C/c1ccccc1	> 100	> 100	> 100	> 100	> 100	> 100	–	–	–
CN(C/C=C/c1cccn1C)Cc1cccc2ccccc12	50 (≈ 172 µM)	25 (≈ 86.1 µM)	> 100	> 100	50 (≈ 172 µM)	25 (≈ 86.1 µM)	–	–	–
CN(C/C=C/c1ccccc1)C(c1ccccc1)c1ccccc1	> 100	> 100	> 100	> 100	> 100	> 100	–	–	–
CN(C/C=C/CO)Cc1cccc2ccccc12	> 100	> 100	> 100	> 100	> 100	> 100	–	–	–
CN(C/C=C/c1ccccc1)Cc1csc2ccccc12	0.2 (≈ 0.682 µM)	0.2 (≈ 0.682 µM)	25 (≈ 85.2 µM)	3.1 (≈ 10.6 µM)	1.6 (≈ 5.45 µM)	0.1 (≈ 0.341 µM)	97	0	54
C(=C\c1ccccc1)/CNCc1cccc2ccccc12 [N-DEALKYL NAFTIFINE]	100 (≈ 366 µM)	100 (≈ 366 µM)	> 100	> 100	100 (≈ 366 µM)	12.5 (≈ 45.7 µM)	–	–	–
